Results reported in US8524750B2, “(Pyrazol-3-yl)-1,3,4-thiadiazol-2-amine and (pyrazol-3-yl)-1,3,4-thiazol-2-amine compounds” (Glaxo Group Limited, priority 2009, dated 2013).
≈ marks a conversion by molar mass, not a printed value. Like-named read-outs stand apart in the source and are kept apart here.

Legend:
[1] = system: Mycobacterium tuberculosis H37Rv; assay: Mycobacterium tuberculosis H37Rv Inhibition Assay (Whole Cell Assay); type: cell-based; conditions: ATCC 25618 / H37Rv, H37Rv strain (ATCC25618), Middlebrook 7H9, six days at 37° C., resazurin fluorescence after 48 hours
[2] = molecular target: T1, Mycobacterium tuberculosis InhA (Mycobacterium tuberculosis, UniProt P9WGR1); assay: Mycobacterium tuberculosis InhA Inhibition Assay (Enzyme Assay); type: biochemical; conditions: 5 nM InhA, 50 μM DDCoA, 50 μM NADH, PIPES buffer pH 6.8, initial velocities of NADH consumption
T1 construct: made in house; host or cells: E. coli
Description: Mycobacterium tuberculosis InhA Inhibition Assay (Enzyme Assay)
InhA is able to reduce 2-trans enoyl-CoA esters with concomitant oxidation of NADH to NAD^+. The assay format is based on the kinetic detection of NADH consumption.
Assay for InhA inhibition is carried out with mycobacterium recombinant protein expressed and purified form E. coli. Standard assay conditions for the determination of kinetic constants and inhibitors activity use 5 nM of InhA, 50 μM of Dodecenoyl-CoA synthesized and purified as described by Quernard et al (DDCoA) and 50 μM of NADH as substrates, and it is carried out in 30 mM PIPES buffer pH 6.8, containing 0.05% of BSA. […] Triclosan is used as positive control in every experiment. One μl of compounds is added to the wells containing 25 μl of the DDCoA+NADH mix, the reaction is started by adding 50 μl of the enzyme solution. Fluorescence from NADH is followed at room temperature during 20 minutes in a fluorescent plate reader (excitation at 340 nm; emission at 480 nm). IC50 values are determined using initial velocities of NADH consumption.
Quernard A, Sacchettini J C, Dessen A, et al. Enzymatic characterization of the target for isoniazid in Mycobacterium tuberculosis. Biochemistry 1995; 34:8235-41.

T1 sequence (P9WGR1 whole entry, looked up): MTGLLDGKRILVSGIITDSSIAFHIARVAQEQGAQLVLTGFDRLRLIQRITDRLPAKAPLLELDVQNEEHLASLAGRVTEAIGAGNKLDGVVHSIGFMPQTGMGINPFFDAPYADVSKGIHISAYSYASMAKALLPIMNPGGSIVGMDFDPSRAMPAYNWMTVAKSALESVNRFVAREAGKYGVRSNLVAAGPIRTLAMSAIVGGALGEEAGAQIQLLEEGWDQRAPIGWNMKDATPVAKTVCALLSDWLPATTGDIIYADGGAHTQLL

| Structure (SMILES) | MIC [1] | IC50 ([2]; read-out: IC50 value) | IC50 ([2]; IC50 value) |
| --- | --- | --- | --- |
| Cc1cc(C(F)F)nn1C(C)c1nnc(Nc2ccn(Cc3ccccc3)n2)s1 (centres unmarked) [Example 43, 5-{1-[3-(difluoromethyl)-5-methyl-1H-pyrazol-1-yl]ethyl}-N-[1-(phenylmethyl)-1H-pyrazol-3-yl]-1,3,4-thiadiazol-2-amine] | 4 to 10 µM (≈ 1.66 to 4.15 µg/mL) | < 120 nM | – |
| Cc1cc([N+](=O)[O-])nn1C(C)c1nnc(Nc2ccn(Cc3ccccc3Cl)n2)s1 (centres unmarked) [Example 40, N-{1-[(2-chlorophenyl)methyl]-1H-pyrazol-3-yl}-5-[1-(5-methyl-3-nitro-1H-pyrazol-1-yl)ethyl]-1,3,4-thiadiazol-2-amine] | 1 to 4 µM (≈ 0.445 to 1.78 µg/mL) | < 112 nM | – |
| Cc1ccn(C(C)c2nnc(Nc3ccn(Cc4ccccc4Br)n3)s2)n1 (centres unmarked) [Example 5, N-{1-[(2-bromophenyl)methyl]-1H-pyrazol-3-yl}-5-[1-(3-methyl-1H-pyrazol-1-yl)ethyl]-1,3,4-thiadiazol-2-amine] | 4 to 10 µM (≈ 1.78 to 4.44 µg/mL) | < 113 nM | – |
| Cc1cc(C)n(C(C)c2nnc(Nc3ccn(Cc4c(F)cccc4Cl)n3)s2)n1 (racemic) [Example 28, N-{1-[(2-chloro-6-fluorophenyl)methyl]-1H-pyrazol-3-yl}-5-[1-(3,5-dimethyl-1H-pyrazol-1-yl)ethyl]-1,3,4-thiadiazol-2-amine] | ≤ 1 µM | < 116 nM | – |
| Cc1csc(C(C)(C)c2nnc(Nc3ccn(Cc4c(F)cccc4Cl)n3)s2)n1 [Example 74, N-{1-[(2-chloro-6-fluorophenyl)methyl]-1H-pyrazol-3-yl}-5-[1-methyl-1-(4-methyl-1,3-thiazol-2-yl)ethyl]-1,3,4-thiadiazol-2-amine] | 1 to 4 µM (≈ 0.449 to 1.8 µg/mL) | – | < 111 nM |
| COC(C)(c1nc(C)cs1)c1nnc(Nc2ccn(Cc3c(F)cccc3Cl)n2)s1 (centres unmarked) [Example 72, N-{1-[(2-chloro-6-fluorophenyl)methyl]-1H-pyrazol-3-yl}-5-[1-(methyloxy)-1-(4-methyl-1,3-thiazol-2-yl)ethyl]-1,3,4-thiadiazol-2-amine] | 1 to 4 µM (≈ 0.465 to 1.86 µg/mL) | < 108 nM | – |
| Cc1ccn(C(C)c2nnc(Nc3ccn(Cc4ccccc4Cl)n3)s2)n1 (centres unmarked) [Example 42, N-{1-[(2-chlorophenyl)methyl]-1H-pyrazol-3-yl}-5-[1-(3-methyl-1H-pyrazol-1-yl)ethyl]-1,3,4-thiadiazol-2-amine] | 1 to 4 µM (≈ 0.4 to 1.6 µg/mL) | < 125 nM | – |
| Cc1cc(C)n(C(C)c2nnc(Nc3ccn(Cc4cc(C(F)(F)F)ccc4C(F)(F)F)n3)s2)n1 (centres unmarked) [Example 8, N-(1-{[2,5-bis(trifluoromethyl)phenyl]methyl}-1H-pyrazol-3-yl)-5-[1-(3,5-dimethyl-1H-pyrazol-1-yl)ethyl]-1,3,4-thiadiazol-2-amine] | > 10 µM | < 97 nM | – |
| Cc1cc(C)n([C@H](C)c2nnc(Nc3ccn(Cc4c(F)cccc4Cl)n3)s2)n1 (single isomer, unassigned) [Example 68] | > 10 µM | < 116 nM | – |
| Cc1ccn(C(C)c2nnc(Nc3ccn(Cc4cccc(C)c4F)n3)s2)n1 (centres unmarked) [Example 13, N-{1-[(2-fluoro-3-methylphenyl)methyl]-1H-pyrazol-3-yl}-5-[1-(3-methyl-1H-pyrazol-1-yl)ethyl]-1,3,4-thiadiazol-2-amine] | ≤ 1 µM | < 126 nM | – |
| O=[N+]([O-])c1ccn(Cc2nnc(Nc3ccn(Cc4ccccc4Cl)n3)s2)n1 [Example 49, N-{1-[(2-chlorophenyl)methyl]-1H-pyrazol-3-yl}-5-[(3-nitro-1H-pyrazol-1-yl)methyl]-1,3,4-thiadiazol-2-amine] | > 10 µM | < 120 nM | – |
| Cc1csc(C(C)(O)c2nnc(Nc3ccn(Cc4cccc(Cl)c4F)n3)s2)n1 (centres unmarked) [Example 79, 1-[5-({1-[(3-chloro-2-fluorophenyl)methyl]-1H-pyrazol-3-yl}amino)-1,3,4-thiadiazol-2-yl]-1-(4-methyl-1,3-thiazol-2-yl)ethanol] | ≤ 1 µM | – | < 111 nM |
| Cc1cc(C)n(C(C)c2nnc(Nc3ccn(Cc4c(F)cccc4F)n3)s2)n1 (centres unmarked) [Example 12, N-{1-[(2,6-difluorophenyl)methyl]-1H-pyrazol-3-yl}-5-[1-(3,5-dimethyl-1H-pyrazol-1-yl)ethyl]-1,3,4-thiadiazol-2-amine] | ≤ 1 µM | < 120 nM | – |
| Cc1cc(C)n(C(C)c2nnc(Nc3ccn(Cc4cccc(F)c4F)n3)s2)n1 (centres unmarked) [Example 10, N-{1-[(2,3-difluorophenyl)methyl]-1H-pyrazol-3-yl}-5-[1-(3,5-dimethyl-1H-pyrazol-1-yl)ethyl]-1,3,4-thiadiazol-2-amine] | ≤ 1 µM | < 120 nM | – |
| Cc1cc(C)n(C(C)c2nnc(Nc3ccn(Cc4ccccc4Br)n3)s2)n1 (centres unmarked) [Example 3, N-{1-[(2-bromophenyl)methyl]-1H-pyrazol-3-yl}-5-[1-(3,5-dimethyl-1H-pyrazol-1-yl)ethyl]-1,3,4-thiadiazol-2-amine] | 1 to 4 µM (≈ 0.458 to 1.83 µg/mL) | < 109 nM | – |
| Cc1csc(C(C)c2nnc(Nc3ccn(Cc4c(F)ccc(C)c4F)n3)s2)n1 (centres unmarked) [Example 85, N-{1-[(2,6-difluoro-3-methylphenyl)methyl]-1H-pyrazol-3-yl}-5-[1-(4-methyl-1,3-thiazol-2-yl)ethyl]-1,3,4-thiadiazol-2-amine] | 1 to 4 µM (≈ 0.433 to 1.73 µg/mL) | – | < 116 nM |
| Cc1cc(C)n(C(C)c2nnc(Nc3ccn(Cc4cc(Cl)ccc4Cl)n3)s2)n1 (centres unmarked) [Example 2, N-{1-[(2,5-dichlorophenyl)methyl]-1H-pyrazol-3-yl}-5-[1-(3,5-dimethyl-1H-pyrazol-1-yl)ethyl]-1,3,4-thiadiazol-2-amine] | > 10 µM | < 112 nM | – |
| Cc1cc(C)n(C(C)c2nnc(Nc3ccn(Cc4ccccc4C(F)(F)F)n3)s2)n1 (centres unmarked) [Example 1, 5-[1-(3,5-dimethyl-1H-pyrazol-1-yl)ethyl]-N-(1-{[2-(trifluoromethyl)phenyl]methyl}-1H-pyrazol-3-yl)-1,3,4-thiadiazol-2-amine] | 4 to 10 µM (≈ 1.79 to 4.47 µg/mL) | < 112 nM | – |
| Cc1cc(C(F)F)nn1Cc1nnc(Nc2ccn(Cc3ccccc3Cl)n2)s1 [Example 46, N-{1-[(2-chlorophenyl)methyl]-1H-pyrazol-3-yl}-5-{[3-(difluoromethyl)-5-methyl-1H-pyrazol-1-yl]methyl}-1,3,4-thiadiazol-2-amine] | > 10 µM | – | < 115 nM |
| Cc1cc(C)n(C(C)c2nnc(Nc3ccn(Cc4ccc(F)cc4Cl)n3)s2)n1 (centres unmarked) [Example 17, N-{1-[(2-chloro-4-fluorophenyl)methyl]-1H-pyrazol-3-yl}-5-[1-(3,5-dimethyl-1H-pyrazol-1-yl)ethyl]-1,3,4-thiadiazol-2-amine] | > 10 µM | – | 116 to 232 nM |
| Cc1ccn(C(C)c2nnc(Nc3ccn(Cc4c(F)cccc4Cl)n3)s2)n1 (racemic) [Example 38, N-{1-[(2-chloro-6-fluorophenyl)methyl]-1H-pyrazol-3-yl}-5-[1-(3-methyl-1H-pyrazol-1-yl)ethyl]-1,3,4-thiadiazol-2-amine] | ≤ 1 µM | < 120 nM | – |
| Cc1cc(C)n(C(C)c2nnc(Nc3ccn(Cc4ccccc4)n3)s2)n1 (centres unmarked) [Example 21, 5-[1-(3,5-dimethyl-1H-pyrazol-1-yl)ethyl]-N-[1-(phenylmethyl)-1H-pyrazol-3-yl]-1,3,4-thiadiazol-2-amine] | 4 to 10 µM (≈ 1.52 to 3.79 µg/mL) | < 132 nM | – |
| Cc1cc(C)n(C(C)c2nnc(Nc3ccn(Cc4ccc(Cl)cc4)n3)s2)n1 (centres unmarked) [Example 34, N-{1-[(4-chlorophenyl)methyl]-1H-pyrazol-3-yl}-5-[1-(3,5-dimethyl-1H-pyrazol-1-yl)ethyl]-1,3,4-thiadiazol-2-amine] | 4 to 10 µM (≈ 1.66 to 4.14 µg/mL) | – | 121 to 242 nM |
| Cc1csc(C(C)(O)c2nnc(Nc3ccn(Cc4cccc(C)c4F)n3)s2)n1 (centres unmarked) [Example 83, 1-[5-({1-[(2-fluoro-3-methylphenyl)methyl]-1H-pyrazol-3-yl}amino)-1,3,4-thiadiazol-2-yl]-1-(4-methyl-1,3-thiazol-2-yl)ethanol] | ≤ 1 µM | – | < 116 nM |
| Cc1cc(C)n(C(C)c2nnc(Nc3ccn(Cc4c(F)ccc(F)c4F)n3)s2)n1 (centres unmarked) [Example 77, 5-[1-(3,5-dimethyl-1H-pyrazol-1-yl)ethyl]-N-{1-[(2,3,6-trifluorophenyl)methyl]-1H-pyrazol-3-yl}-1,3,4-thiadiazol-2-amine] | ≤ 1 µM | – | < 115 nM |
| Cc1csc(Cc2nnc(Nc3ccn(Cc4c(F)cccc4Cl)n3)s2)n1 [Example 32, N-{1-[(2-chloro-6-fluorophenyl)methyl]-1H-pyrazol-3-yl}-5-[(4-methyl-1,3-thiazol-2-yl)methyl]-1,3,4-thiadiazol-2-amine] | 4 to 10 µM (≈ 1.68 to 4.21 µg/mL) | < 119 nM | – |
| Cc1cc(C)n(Cc2nnc(Nc3ccn(Cc4c(Cl)cccc4Cl)n3)s2)n1 [Example 53, N-{1-[(2,6-dichlorophenyl)methyl]-1H-pyrazol-3-yl}-5-[(3,5-dimethyl-1H-pyrazol-1-yl)methyl]-1,3,4-thiadiazol-2-amine] | > 10 µM | < 115 nM | – |
| Cc1cc(C)n(C(C)c2nnc(Nc3ccn(Cc4cc(F)ccc4C(F)(F)F)n3)s2)n1 (centres unmarked) [Example 9, 5-[1-(3,5-dimethyl-1H-pyrazol-1-yl)ethyl]-N-(1-{[5-fluoro-2-(trifluoromethyl)phenyl]methyl}-1H-pyrazol-3-yl)-1,3,4-thiadiazol-2-amine] | > 10 µM | < 107 nM | – |
